Source: patent US20170280722A1, “COMPOSITIONS AND METHODS FOR CONTROL OF SAND FLIES AND OTHER BLOOD SUCKING INSECTS” (GENESIS LABORATORIES, INC., priority 2010, published 2017)

Tests used:
[1] = tested on: P. argentipes 1st instar larvae; assay: Larval bioassay with feces of insecticide treated R. rattus (feed through); format: in vivo; conditions: for Mean ± SEM survival (days) of P. arg larvae post-exposure / P. argentipes larvae mortality (%): feces of R. rattus day-1 post treatment
Experimental: In the first study, a feed through study comparing diflubenzuron, fipronil, ivermectin, and eprinomectin was conducted on rats (Rattus rattus). Fecal samples were collected after three (3) consecutive days of administration of the trial products. The efficacy of the drugs administered during the blind study underwent testing in larval bioassays with P. argentipes 1st instar larvae. Commercially available chicken feed was mixed with the appropriate concentrations of each insecticide compound and used as is in the trial.
Twelve (12) locally purchased rats (Rattus rattus) of mixed sex were utilized in a small study testing the efficacy of four feed through insecticides. Five treatment groups of two rats each were randomly identified and fed diets consisting of locally available chicken feed treated with one of the following compounds: diflubenzuron (0.048%), fipronil (0.015%), ivermectin (0.025%), and eprinomectin (0.01% and 0.025%). Two rats served as control and were fed only chicken feed. Rats were fed 20 g of their assigned diet daily at the same time, with daily consumption and spillage calculated for a period of three (3) days. Sand fly analyses were conducted simultaneously.
[…] Collected feces were dried at approximately 40° C. in an oven then ground into a fine powder utilizing a pestle and mortar and frozen at −20° C. until larval bioassays were initiated.
Larval bioassay pots were prepared using 48 mm, 100 g round Dibbi jars. Dishes were prepared by burning several small holes into the bottom of the dish with a soldering iron and filling them with a small layer of plaster (¼ to ½ inch depth). Approximately 15-20 holes were punctured into the lids using 24 gauge needles. For simpler mortality counting, pots were quartered and each quadrant numbered using an ultra fine black Sharpie.
For each individual post-treatment bioassays, thirteen (13) dishes were loaded with 10 day old 1st instar P. argentipes larvae; twelve (12) pots were provided with approximately 0.005 g of the treated feces, with two sample pots per treated bandicoot rat, and one overall control sample fed only standard larval diet. See Table 1 for sample/treatment correlations. Larvae were loaded into bioassay pots and provided with their designated treatment sample. Mortality counts of larvae were conducted every 24 hours post-treatment until 100% mortality, or pupation, was reached.

P. papatasi larvae = assay: Larval bioassay with feces of sand rats fed imidacloprid diet; format: in vivo
Experimental: A second trial was carried out using sand rats (Psammomys obesus) as the carrier of sand flies (P. papatasi) and imidacloprid as the insecticide. This rodent species was targeted since it serves as the source of blood meals for adult sand flies and its feces serves as a platform for larval development in Middle East ecosystems.
(§1) The test insecticide, imidacloprid at 250 ppm (0.025%) was incorporated into the feed together with orange, yellow, or green dye and fed to rats housed in standard laboratory caging. The treatment groups consisted of 6 males and 9 females; Controls: 3 males and 4 females with a body weight between 125-250 g.
(§2) DESIGN—Five sand rats were provided the reformulated diet for each of the treatment levels (50 ppm, 100 ppm, 250 ppm). Five sand rats were provided with control diets without imidacloprid. Two additional rats were provided with control diets containing green dye.
(§3) Feces were collected from the Alpha-Dri bedding for the last 5 days of the 7 day treatment period. Feces were weighed and transferred to a plastic bag labeled with the animal's cage identification number and stored frozen at −20° C.
Bioassays of the larval groups comprised: four imidacloprid treatments (0, 50, 100, 250 ppm) (number of replicates per assay n=5), one control group (n=8), and one green dye treatment (n=2). These bioassays were conducted with 1st and 2-3rd instar larvae and were repeated three times. Bioassays were conducted in 6 well culture plates (Corning, Inc) with 5 ml of plaster of Paris in the bottom of each well. The plaster was saturated with distilled water before the experiment, and was blotted with filter paper to remove standing water immediately before use. The effect of imidacloprid treatment on 1st and 2nd-3rd instar larvae was tested. The control group was provided using standard larval diet. This allowed comparison of sand fly survival between those feeding on feces from sand rats that fed on non treated feed and those fed on standard sand fly diet. First instar larvae were obtained by adding 50 eggs to each well and allowed to hatch and fed on regular diet for 2-3 days. At this time ca. 0.1 g of crushed pellets or control feed was added. Second-3rd instar larvae were obtained by letting 1st instar larvae grow on standard diet in the wells until moulted. At this, time crushed pellets or control feed (0.1 g) was added. […] The wells of the plate were covered with parafilm which was punctured with a needle to allow for ventilation. The wells were kept in a humidified room (26° C./75% RH) inside a covered tube which contained a saturated sponge. The container was placed in an environmental chamber at 28 C, 90% RH, and a photoperiod of 14:10 (L:D) h. […] Alimentation was noted by observation of the presence of frass in the vials and dark material in the guts of the larvae.

[2] = Acceptance and tolerance of imidacloprid diet by sand rats; format: in vivo, Psammomys obesus
Text: as §1, §2, §3

[3] = cited from earlier work

Molecule: O=C(NC(=O)c1c(F)cccc1F)Nc1ccc(Cl)cc1 [diflubenzuron]
- Mean ± SEM survival (days) of P. arg larvae post-exposure ([1]; 480 ppm): 9.75 ± 0.71 days
- P. argentipes larvae mortality (%) ([1]; 480 ppm): 100%

Molecule: O=[N+]([O-])NC1=NCCN1Cc1ccc(Cl)nc1 [imidacloprid]
- Survivorship for 1st instar larvae (P. papatasi larvae; by day 5, feces from sand rats administered 100 ppm): < 5%
- Survivorship for 1st instar larvae (P. papatasi larvae; by day 5, feces from sand rats administered 250 ppm): < 5%
- Survivorship for 2nd/3rd instar larvae (P. papatasi larvae; by day 7, feces from sand rats administered 250 ppm): 10%
- Larval mortality (P. papatasi larvae; by seven days, feces from diets containing 250 ppm): 90%
- Larvicidal effect of feces for 1st instar larvae (P. papatasi larvae; sand rats fed diets of 100 ppm and 250 ppm): rapidly and highly larvicidal
- Difference in fecal production between treatment groups ([2]; P=0.1199): no significant difference
- Health of sand rats on diet ([2]; diets 50, 100, 250 ppm, 7 day treatment): without any apparent health abnormalities
- Residue in blood ([3]; three days post oral treatment): zero residue

Molecule: CC1(C)C(C=C(Cl)Cl)C1C(=O)OCc1cccc(Oc2ccccc2)c1 (stereo not shown) [permethrin]
- Time within which the majority of the product is excreted ([3]; rodents, oral treatment): ≤ 48 h
- Absorption by the skin ([3]; topical): not readily absorbed by the skin

Molecule: eprinomectin
- Mean ± SEM survival (days) of P. arg larvae post-exposure ([1]; 100 ppm): 12.65 ± 0.70 days
- P. argentipes larvae mortality (%) ([1]; 100 ppm): 100%
- Mean ± SEM survival (days) of P. arg larvae post-exposure ([1]; 250 ppm): 10.70 ± 0.38 days
- P. argentipes larvae mortality (%) ([1]; 250 ppm): 100%

Molecule: ivermectin
- Mean ± SEM survival (days) of P. arg larvae post-exposure ([1]; 250 ppm): 7.40 ± 0.11 days
- P. argentipes larvae mortality (%) ([1]; 250 ppm): 100%
- Day of observation by which 100% larval mortality was reached ([1]; feces of R. rattus fed 0.025% in feed): ≤ 8 days
